Assay in all cases: DTP human tumour cell line panel, 48 h
Experiment [1] concerns CCRF-CEM leukemia.
In experiment [2] the test system is HOP-62 NSCLC.
The subject of experiment [3] is KM12 colon.
Experiment [4] relates to NCI-H23 lung.
The subject of experiment [5] is NCI-H522 lung.
The test system of experiment [6] is SN12C renal.
The subject of experiment [7] is SNB-19 CNS.
The subject of experiment [8] is TK-10 renal.
For experiment [9], the system named is U251 CNS.
The subject of experiment [10] is UO-31 renal.

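Interpolation was linear, between the two tested concentrations surrounding the appropriate level; five concentrations were tested over 48 hours in 96-well plates. GI50 = concentration required for 50% inhibition of growth. At the TGI there is no net growth.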

For 20 compounds, GI50 and TGI results are on record in PubChem BioAssay (NCI).

As a reminder, the GI50 is the concentration at which growth is held to half of that of the control. For orientation: TGI means the concentration giving total growth inhibition. Regarding `C#CCN=C(N/N=C/c1ccc([N+](=O)[O-])o1)NS(=O)(=O)c1cc(C)c(Cl)cc1SCC(N)=O`, the GI50 was 22.2 µM in experiment [1]; 12.9 µM in experiment [2]; 18.8 µM in [3]; 18.5 µM in experiment [4]; 10 µM in [5]; 15.5 µM in experiment [6]. Besides, the GI50 in experiment [7] is 50.6 µM; in experiment [8], 22.2 µM; in [9], 22.6 µM; in experiment [10], 17.6 µM. In addition, the TGI in [1] worked out at 57.4 µM; in [2] it was 25.7 µM; in [3], 38.9 µM; in [4], 33.1 µM; in experiment [5], 23.3 µM; in [6] it was 29.4 µM. Moreover, the TGI in [7] is over 100 µM; in experiment [8], 38.3 µM; in experiment [9], 84.9 µM; in experiment [10], 31.4 µM.
For the compound `N/C(=N\N=C\c1cccs1)NO`, the TGI in experiment [1], in experiment [2], in experiment [3], in experiment [4], in [5] and in experiment [6] was over 100 µM in each case. The TGI in experiment [7], in [8], in experiment [9] and in [10] was over 100 µM throughout.
On to `COC(=O)N/N=C(/CCN1CCCC1)CC(c1ccccc1)c1c(O)c2ccccc2oc1=O` (stereo not drawn), for which the TGI in experiment [1], in experiment [2], in experiment [3], in [4], in experiment [5] and in experiment [6] was over 100 µM each time. In addition, the TGI in experiment [7], in experiment [8], in experiment [9] and in experiment [10] was over 100 µM in each case.
As for `CCC(C)OC(=O)C1C2CCC(O2)C1C(=O)O` (stereo not drawn), the TGI in experiment [1], in [2], in experiment [3], in experiment [4], in [5] and in experiment [6] was over 100 µM throughout. In addition, the concentration for total growth inhibition (TGI) in [7] is over 100 µM; in experiment [8] it was over 100 µM; in experiment [9], over 67.3 µM; in experiment [10], over 100 µM.
For the compound `O=C(O)C1NCCc2c1[nH]c1ccccc21` (stereo not drawn), the GI50 in experiment [1], in experiment [3], in experiment [4], in experiment [5], in experiment [6] and in experiment [7] was over 100 µM each time. Besides, the GI50 in [8] and in [9] was over 100 µM throughout. Also, the TGI in experiment [1] is over 100 µM; in experiment [2], over 10 µM; in experiment [3] it was over 100 µM; in [4], over 100 µM; in [5] it was over 100 µM; in experiment [6], over 100 µM. For the same compound, the TGI in [7], in experiment [8], in experiment [9] and in experiment [10] was over 100 µM throughout.
As to `CN(C)C(=O)/N=c1\ss/c(=N\C(=S)N(C)C)n1-c1ccccc1`, the TGI in experiment [1] was over 48.8 µM; in experiment [2] it was over 100 µM; in experiment [3] it was over 100 µM; in experiment [4], over 100 µM; in experiment [5], 8.12 µM; in experiment [6] it was over 100 µM. The total growth inhibition concentration (TGI) in experiment [7] was over 100 µM; in [8], 84.7 µM; in experiment [9] it was over 100 µM; in [10], over 100 µM.
`CN(C)CCCN(c1nc(C(Cl)(Cl)Cl)ns1)c1nc(C(Cl)(Cl)Cl)ns1`: the GI50 in experiment [1] is 2.45 µM; in experiment [2], 1.64 µM; in experiment [3] it was 1.8 µM; in experiment [4], 2.04 µM; in [5], 1.71 µM; in experiment [6], 3.42 µM. Moreover, the GI50 in experiment [7] was 2.53 µM; in experiment [8], 1.93 µM; in [9], 1.76 µM; in experiment [10], 1.47 µM. In addition, the TGI in [1] was 8.03 µM; in experiment [2], 3.07 µM; in [3], 3.44 µM; in [4] it was 5.55 µM; in experiment [5], 3.45 µM; in experiment [6], 11.6 µM. Also, the total growth inhibition concentration (TGI) amounted to 7.3 µM in experiment [7], 3.58 µM in experiment [8], 3.22 µM in experiment [9] and 3.08 µM in experiment [10].
For the compound `COC(=O)C(=O)C(C(=O)C(=O)Nc1ccc(Cl)cc1C)c1nc2ccc(C(=O)c3ccccc3)cc2[nH]c1=O` (stereo not drawn), the TGI in [1], in experiment [2], in experiment [3], in experiment [4], in [5] and in [6] was over 100 µM each time. Moreover, the TGI in experiment [7], in [8], in experiment [9] and in experiment [10] was over 100 µM in each case.
For the compound `CN[C@]12CC3(C=CC(=O)C=C3)O[C@@]1(Cc1ccc(OC)cc1)N(C)C(=O)N2`, the GI50 in experiment [1] is 1.8 µM; in experiment [2], 2.48 µM; in [3] it was 1.69 µM; in [4] it was 2.88 µM; in [5], 0.371 µM; in experiment [6], 1.7 µM. Besides, the GI50 in experiment [7] was 3.63 µM; in experiment [8], 2.48 µM; in experiment [9], 1.85 µM; in [10], 1.47 µM. For the same compound, the TGI in experiment [1] came out at 3.72 µM; in [2] it was 11.2 µM; in [3], 3.54 µM; in [4], 9.35 µM; in [5], 2.14 µM; in [6], 7.13 µM. Moreover, the total growth inhibition concentration (TGI) came to 14.5 µM in [7], 6.72 µM in experiment [8], 3.99 µM in experiment [9] and 2.89 µM in experiment [10].
On to `COc1ccc(/C(C)=C(\c2ccc(Cl)cc2)c2ccc(OCCN3CCCC3)cc2)cc1F`, for which the GI50 in [1] was 4.24 µM; in experiment [2], 3.92 µM; in experiment [3] it was 1.26 µM; in experiment [4], 3.55 µM; in experiment [5], 4.35 µM; in [6] it was 3.55 µM. The GI50 in experiment [7] was 3.87 µM; in [8], 3.58 µM; in [9], 3.15 µM; in experiment [10], 2.95 µM. Besides, the total growth inhibition concentration (TGI) came to 10.7 µM in [1]; 8.22 µM in [2]; 4.5 µM in experiment [3]; 7.27 µM in [4]; 8.94 µM in [5]; 7.12 µM in [6]. Also, the concentration for total growth inhibition (TGI) in experiment [7] was 7.41 µM; in experiment [8], 8.13 µM; in experiment [9], 7.17 µM; in [10], 6.26 µM.
As for `Cc1cccc2c(N=Nc3ccc(S(N)(=O)=O)cc3)c(O)[nH]c12`, the GI50 in experiment [1], in experiment [2], in experiment [3], in experiment [4], in [5] and in [6] was over 25 µM in each case. In addition, the GI50 in experiment [7], in [8], in experiment [9] and in experiment [10] was over 25 µM throughout. Further, the TGI in [1], in experiment [2], in experiment [3], in experiment [4], in [5] and in experiment [6] was over 25 µM throughout. Also, the TGI in experiment [7], in [8], in experiment [9] and in [10] was over 25 µM throughout.
As for `CC(=O)Nc1ccc(C(=O)NN2C(=O)C(Cl)C2c2cc(Br)ccc2O)cc1` (stereo not drawn), the TGI in [1], in experiment [2], in experiment [3], in experiment [4], in [5] and in experiment [6] was over 100 µM in each case. Also, the total growth inhibition concentration (TGI) in experiment [7] was over 100 µM; in [8], over 100 µM; in [9], over 100 µM; in experiment [10], 32.3 µM.
Consider `O=c1cc(-c2ccc(Cl)cc2)[nH]c2ncccc12`, for which the concentration for total growth inhibition (TGI) in [1], in experiment [2], in [3], in [4], in experiment [5] and in experiment [6] was over 100 µM throughout. Further, the TGI in experiment [7], in [8], in [9] and in [10] was over 100 µM in each case.
Take `O=C(Nc1n[nH]c2nc(-c3ccco3)ccc12)C1CC1`: the GI50 in [1], in [2], in experiment [3], in experiment [4], in [5] and in experiment [6] was over 25 µM throughout. In addition, the GI50 in experiment [7], in [8], in experiment [9] and in experiment [10] was over 25 µM in each case. For the same compound, the total growth inhibition concentration (TGI) in experiment [1], in [2], in experiment [3], in experiment [4], in experiment [5] and in [6] was over 25 µM throughout. Besides, the concentration for total growth inhibition (TGI) in experiment [7], in experiment [8], in experiment [9] and in [10] was over 25 µM throughout.
With `C=C1C(=O)O[C@@H]2C(=O)[C@@H](C)[C@@H]3C=CC(=O)[C@@]3(C)[C@@H](OC(=O)/C(C)=C\C)[C@H]12`, the TGI in experiment [1] was found to be 2.24 µM; in experiment [2], 24.8 µM; in experiment [3], 8 µM; in experiment [4] it was 9.8 µM; in experiment [5], 0.25 µM; in experiment [6] it was 2.85 µM. Also, the total growth inhibition concentration (TGI) in experiment [7] was 25.9 µM; in experiment [8] it was 1.74 µM; in experiment [9], 6.67 µM; in experiment [10], 2.85 µM.
In the case of `C=C[C@]1(C)CCC2=C(CCC3C2(C)CCC[C@]3(C)CO)C1` (stereo partly drawn), the TGI in experiment [1] was over 100 µM; in [2] it was over 100 µM; in [3], over 100 µM; in experiment [4] it was over 100 µM; in experiment [5] it was 52.5 µM; in experiment [6], 43.6 µM. Further, the total growth inhibition concentration (TGI) in [7] was over 100 µM; in experiment [8] it was over 100 µM; in experiment [9] it was 63.8 µM; in experiment [10], over 100 µM.
As for `O=C1/C(=C\C(Cl)=C/c2ccc([N+](=O)[O-])cc2)SC(=S)N1CCc1ccc(O)cc1`, the concentration for 50% growth inhibition (GI50) in [1] is 0.31 µM; in [2], 1.41 µM; in [3] it was 0.312 µM; in experiment [4], 0.632 µM; in [5], 0.502 µM; in experiment [6], 0.33 µM. The GI50 was 0.507 µM in [7], 1.53 µM in experiment [8], 0.261 µM in experiment [9] and 0.324 µM in experiment [10]. For the same compound, the TGI worked out at 5.67 µM in [1]; 4.22 µM in experiment [2]; 1.05 µM in experiment [3]; 2.17 µM in experiment [4]; 2.67 µM in experiment [5]; 1.38 µM in experiment [6]. Besides, the TGI in experiment [7] was found to be 1.86 µM; in experiment [8], 3.25 µM; in experiment [9] it was 0.85 µM; in experiment [10], 1.24 µM.
In the case of `CN=C1Nc2ccc(Cl)cc2C(c2ccccc2)=NN1C`, the TGI in experiment [1], in experiment [2], in experiment [3], in experiment [4], in [5] and in [6] was over 100 µM in each case. Also, the TGI in experiment [7], in experiment [8], in [9] and in [10] was over 100 µM each time.
For the compound `CCC1=C(C)/C(=C/c2[nH]c(CBr)c(CC)c2C)N=C1CBr`, the TGI came out at 9.55 µM in experiment [1]; 34.8 µM in experiment [2]; 26.9 µM in experiment [3]; 46.7 µM in experiment [4]; 9.67 µM in experiment [5]; 28.3 µM in [6]. Moreover, the TGI worked out at 33.9 µM in experiment [7], 37.6 µM in experiment [8], 24.6 µM in experiment [9] and 15.8 µM in [10].
Regarding `N.N.N.N.N.N.[I-].[Os]`, the GI50 in experiment [1], in experiment [2], in experiment [3], in experiment [4], in experiment [5] and in experiment [6] was over 100 µM throughout. Also, the GI50 in [7], in experiment [8], in experiment [9] and in experiment [10] was over 100 µM throughout. Moreover, the TGI in [1], in [2], in [3], in experiment [4], in experiment [5] and in experiment [6] was over 100 µM in each case. For the same compound, the TGI in experiment [7], in experiment [8], in experiment [9] and in experiment [10] was over 100 µM throughout.
